We go through 7 molecules from patent US9453044.

The conditions of this data set: amide bond, salicylaldehyde ester ligation, TFA, 2 steps.

Read-outs that look alike come from different tables or passages of the source.

Turning to `CC(C)C[C@@H]1NC(=O)CNC(=O)[C@H](CO)NC(=O)CNC(=O)[C@H](C)NC(=O)[C@H](Cc2ccccc2)NC(=O)CNC(=O)[C@H](Cc2ccc(O)cc2)NC1=O` [SGLYGFAG], the ring closure, yield after HPLC (from H-Ser-Gly-Leu-Tyr-Gly-Phe-Ala-Gly-OPhCHO?, 24-membered ring) came out at 52%.

`CC(C)C[C@@H]1NC(=O)CNC(=O)[C@H](CO)NC(=O)CNC(=O)[C@H](C)NC(=O)[C@H](Cc2ccccc2)NC(=O)CNC(=O)[C@H](Cc2ccccc2)NC1=O` [SGLFGFAG]: the ring closure, yield after HPLC (from H-Ser-Gly-Leu-Phe-Gly-Phe-Ala-Gly-OPhCHO?, 24-membered ring) worked out at 65%.

`C[C@@H](O)[C@@H]1NC(=O)CNC(=O)[C@H](Cc2ccccc2)NC(=O)[C@H](Cc2ccccc2)NC(=O)CNC(=O)[C@H](Cc2ccccc2)NC(=O)[C@H](Cc2ccccc2)NC1=O` [TFFGFFG]: the ring closure, yield after HPLC (from H-Thr-Phe-Phe-Gly-Phe-Phe-Gly-OPhCHO?, 21-membered ring) was found to be 56%.

`CC(C)C[C@@H]1NC(=O)[C@H](Cc2ccccc2)NC(=O)[C@H](CO)NC(=O)[C@H](C)NC(=O)[C@H](Cc2ccccc2)NC1=O` [SFLFA] registered a ring closure, yield after HPLC (from H-Ser-Phe-Leu-Phe-Ala-OPhCHO?, 15-membered ring) of 35%.

In the case of `CC(C)C[C@@H]1NC(=O)CNC(=O)[C@H]([C@@H](C)O)NC(=O)CNC(=O)[C@H](C)NC(=O)[C@H](Cc2ccccc2)NC(=O)CNC(=O)[C@H](Cc2ccccc2)NC1=O` [TGLFGFAG], the ring closure, yield after HPLC (from H-Thr-Gly-Leu-Phe-Gly-Phe-Ala-Gly-OPhCHO?, 24-membered ring) came out at 63%.

With `CC(C)C[C@@H]1NC(=O)[C@H](CO)NC(=O)[C@H](CC(C)C)NC(=O)[C@H](CO)NC1=O` [SLSL], the ring closure, yield after HPLC (from H-Ser-Leu-Ser-Leu-OPhCHO?, 12-membered ring) was 20%.

As to `CC(C)C[C@@H]1NC(=O)[C@H](Cc2ccccc2)NC(=O)[C@H](C)NC(=O)[C@H](CCCCN)NC(=O)CNC(=O)[C@H](CO)NC1=O` [SGKAFL], under “from H-Ser-Gly-Lys-Ala-Phe-Leu-OPhCHO?, 18-membered ring”, the ring closure, yield after HPLC came to 39%.
